Source: article PMC12346966, “Targeting the Cell Wall Salvage Pathway: Dual-Enzyme Inhibition of AmgK and MurU as a Strategy Against Antibiotic Resistance” (International Journal of Molecular Sciences, 2025)
Each block holds one compound with its values, some of them ahead of it.

What was measured:
PaMurU [1] = target: T1, PaMurU (Pseudomonas aeruginosa, UniProt Q9I5U0); experiment: SUPR-DSF thermal shift (no Kd); nucleotide preference in enzyme assay; format: binding
T1 construct: gene murU

PaMurU [2] = target: T1, PaMurU; experiment: malachite green dual-enzyme assay IC50; target assigned by ESI-MS; format: biochemical
PaMurU [3] = target: T1, PaMurU; experiment: malachite green dual-enzyme assay IC50; target assigned by ESI-MS; SUPR-DSF shift +[…] °C; format: biochemical

T1 sequence (Q9I5U0 whole entry): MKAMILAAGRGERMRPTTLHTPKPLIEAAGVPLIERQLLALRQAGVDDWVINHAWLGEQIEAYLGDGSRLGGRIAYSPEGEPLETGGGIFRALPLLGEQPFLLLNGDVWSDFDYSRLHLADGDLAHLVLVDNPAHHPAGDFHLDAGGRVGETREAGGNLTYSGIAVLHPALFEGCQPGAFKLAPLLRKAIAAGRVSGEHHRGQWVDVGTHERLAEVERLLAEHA

ΔTm (PaMurU [1]): 3.86 °C
SMILES: O=c1ccn([C@@H]2O[C@H](COP(=O)(O)OP(=O)(O)OP(=O)(O)O)[C@@H](O)[C@H]2O)c(=O)[nH]1 [UTP]

SMILES: CCCCCCCCCCCCCCCC[N+](C)(C)C [compound 1, CTAB]
IC50 (PaMurU [2]): 8.25 µM

IC50 (PaMurU [3]): 14 µM
SMILES: Nc1c(/N=N/c2ccc(-c3ccc(/N=N/c4cc(S(=O)(=O)O)c5ccccc5c4N)cc3)cc2)cc(S(=O)(=O)O)c2ccccc12 [compound 2, 4-amino-3-[[4-[4-[(1-amino-4-sulfonatonaphthalen-2-yl)diazenyl]phenyl]phenyl]diazenyl] naphthalene-1-sulfonate]
